Tests used:
[1] = target: Beta-1 adrenergic receptor (Homo sapiens, UniProt P08588); experiment: Ability to bind to human Beta-1 adrenergic receptor using membranes of stably transfected CHO cells; format: cell-based
[2] = target: T1, Beta-3 adrenergic receptor (Homo sapiens, UniProt P13945); experiment: Ability to bind to human Beta-3 adrenergic receptor using membranes of stably transfected CHO cells; format: cell-based
Target sequence in this assay (P13945 whole entry): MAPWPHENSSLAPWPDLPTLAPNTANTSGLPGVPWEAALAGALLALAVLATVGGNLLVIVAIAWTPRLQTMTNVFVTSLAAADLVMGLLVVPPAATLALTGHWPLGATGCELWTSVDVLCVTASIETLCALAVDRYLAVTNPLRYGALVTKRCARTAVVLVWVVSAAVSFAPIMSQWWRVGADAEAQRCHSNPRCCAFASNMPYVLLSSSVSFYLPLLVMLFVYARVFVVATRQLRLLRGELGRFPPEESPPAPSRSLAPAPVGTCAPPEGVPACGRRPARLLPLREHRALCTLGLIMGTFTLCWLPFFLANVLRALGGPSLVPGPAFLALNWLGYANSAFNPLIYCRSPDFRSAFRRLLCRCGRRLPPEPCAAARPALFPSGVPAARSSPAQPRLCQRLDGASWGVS

[3] = target: Beta-2 adrenergic receptor (Homo sapiens, UniProt P07550); experiment: Ability to bind to human Beta-2 adrenergic receptor using membranes of stably transfected CHO cells; format: cell-based
Chain of Beta-2 adrenergic receptor (P07550 whole entry): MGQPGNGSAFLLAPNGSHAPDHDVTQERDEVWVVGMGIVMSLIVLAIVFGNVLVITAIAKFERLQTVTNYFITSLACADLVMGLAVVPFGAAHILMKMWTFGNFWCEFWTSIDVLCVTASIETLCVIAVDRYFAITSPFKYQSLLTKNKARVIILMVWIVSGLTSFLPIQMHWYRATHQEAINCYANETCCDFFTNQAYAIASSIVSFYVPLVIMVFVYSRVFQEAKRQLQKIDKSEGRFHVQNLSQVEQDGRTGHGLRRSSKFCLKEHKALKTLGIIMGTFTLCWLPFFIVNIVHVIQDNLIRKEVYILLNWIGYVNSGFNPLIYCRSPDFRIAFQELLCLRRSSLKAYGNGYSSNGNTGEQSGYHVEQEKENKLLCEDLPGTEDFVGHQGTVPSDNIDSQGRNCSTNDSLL

[4] = target: T1, Beta-3 adrenergic receptor; experiment: Intrinsic activity as maximal cyclase activity in CHO-beta3 AR cell membranes compared to (-)-isoproterenol; format: functional, cell-based
Target sequence in this assay (P13945 whole entry, looked up): as the sequence (P13945 whole entry) above

[5] = target: T1, Beta-3 adrenergic receptor; experiment: Effective concentration for stimulation of adenylyl cyclase activity in CHO-beta3 AR expressing cell membranes; format: functional
Target sequence in this assay (P13945 whole entry): as above

[6] = target: Adrenergic receptor beta; ADRB1 & ADRB3 (Homo sapiens) (UniProt P08588+P13945); experiment: Binding selectivity ratio for beta 3 over beta 1 AR (S beta3/beta1); format: protein assay
Chain of Adrenergic receptor beta; ADRB1 & ADRB3 (Homo sapiens) (P08588 whole entry, looked up): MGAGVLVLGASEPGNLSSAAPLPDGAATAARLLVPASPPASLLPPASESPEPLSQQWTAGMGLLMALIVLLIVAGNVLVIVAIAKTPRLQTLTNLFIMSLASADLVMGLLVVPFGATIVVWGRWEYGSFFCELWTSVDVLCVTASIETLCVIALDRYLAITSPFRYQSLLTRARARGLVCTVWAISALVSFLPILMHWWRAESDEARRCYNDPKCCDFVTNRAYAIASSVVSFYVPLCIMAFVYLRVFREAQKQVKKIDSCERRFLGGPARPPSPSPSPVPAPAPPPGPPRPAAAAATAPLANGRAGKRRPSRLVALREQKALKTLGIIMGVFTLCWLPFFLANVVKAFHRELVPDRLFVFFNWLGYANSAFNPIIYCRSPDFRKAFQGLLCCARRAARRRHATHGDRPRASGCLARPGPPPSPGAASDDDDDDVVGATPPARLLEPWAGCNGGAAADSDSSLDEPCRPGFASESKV
Chain of Adrenergic receptor beta; ADRB1 & ADRB3 (Homo sapiens) (P13945 whole entry, looked up): as the sequence (P13945 whole entry) above

[7] = target: Beta-2 adrenergic receptor and beta-3 adrenergic receptor (Homo sapiens) (UniProt P07550+P13945); experiment: Binding selectivity ratio for beta 3 over beta 2 AR (S beta3/beta2); format: protein assay

Chain of Beta-1 adrenergic receptor (P08588 whole entry): as the sequence (P08588 whole entry, looked up) above

COC(=O)COc1ccc(C[C@@H](C)NC[C@H](O)c2cccc(Cl)c2)cc1
Ki [1]: 0.17 µM
Ki [2]: 1.15 µM
Ki [3]: 0.0032 µM
Activity [4]: 0.69
EC50 [5]: 0.42 µM
Selectivity [6]: 0.15
Selectivity [7]: 0.0028

C[C@H](Cc1ccc(OCC(N)=O)cc1)NC[C@H](O)c1cccc(Cl)c1
Ki [1]: 0.59 µM
Ki [2]: 3.7 µM
Ki [3]: 0.17 µM
Activity [4]: 0.6
EC50 [5]: 1.61 µM
Selectivity [6]: 0.16
Selectivity [7]: 0.046

CC(C)OP(=O)(O)COc1ccc(C[C@@H](C)NC[C@H](O)c2cccc(Cl)c2)cc1
Ki [1]: 139 µM
Ki [2]: 18.8 µM
Ki [3]: 42.6 µM
Activity [4]: 0.59
EC50 [5]: 0.61 µM
Selectivity [6]: 7.4
Selectivity [7]: 2.3

C[C@H](Cc1ccc(OCP(=O)(O)O)cc1)NC[C@H](O)c1cccc(Cl)c1
Ki [1]: > 100 µM
Ki [2]: 55.3 µM
Ki [3]: 39.7 µM
Activity [4]: 0.53
EC50 [5]: 2.64 µM
Selectivity [6]: > 1.8
Selectivity [7]: 0.72

C[C@H](Cc1ccc(OCCO)cc1)NC[C@H](O)c1cccc(Cl)c1
Ki [1]: 1.25 µM
Ki [2]: 2.14 µM
Ki [3]: 0.26 µM
Activity [4]: 0.77
EC50 [5]: 0.75 µM
Selectivity [6]: 0.58
Selectivity [7]: 0.12

C[C@H](Cc1ccc(OCC(=O)O)cc1)NC[C@H](O)c1cccc(Cl)c1
Activity [4]: 0.67

C[C@H](Cc1ccc(OCS(=O)(=O)O)cc1)NC[C@H](O)c1cccc(Cl)c1
Ki [1]: 7.6 µM
Ki [2]: 0.806 µM
Ki [3]: 2.25 µM
Activity [4]: 0.57
EC50 [5]: 0.06 µM
Selectivity [6]: 9.4
Selectivity [7]: 2.8

C[C@H](Cc1ccc(OCC(=O)NO)cc1)NC[C@H](O)c1cccc(Cl)c1
Ki [1]: 0.31 µM
Ki [2]: 1.96 µM
Ki [3]: 0.112 µM
Activity [4]: 0.66
EC50 [5]: 1.61 µM
Selectivity [6]: 0.16
Selectivity [7]: 0.057

C[C@H](Cc1ccc(OCP(C)(=O)O)cc1)NC[C@H](O)c1cccc(Cl)c1
Ki [1]: 140 µM
Ki [2]: 19.9 µM
Ki [3]: 73.7 µM
Selectivity [6]: 7
Selectivity [7]: 3.7

C[C@H](Cc1ccc(OC(C(=O)O)C(=O)O)cc1)NC[C@H](O)c1cccc(Cl)c1
Ki [1]: 243 µM
Ki [2]: 11.1 µM
Ki [3]: 17.1 µM
Selectivity [6]: 22
Selectivity [7]: 1.5

From ChEMBL document CHEMBL1151506, “Carboxyl-promoted enhancement of selectivity for the 3 adrenergic receptor. Negative charge of the sulfonic acid BMS-187413 introduces-3 binding selectivity” (Bioorg Med Chem Lett, 1997)
